{"source": "patent US20260256940A1", "about": "“MITOCHONDRIA AS A TARGETED DELIVERY PLATFORM” (cellvie AG, priority 2022, published 2026)", "test_system": "heart of a pig", "details": "in vivo", "protocol": "Five milliliters of mitochondria-ssDNA suspension (ssDNA is fluorescently labeled with FAM, and the ssDNA oligo sequence 5′ to 3′ is [sequence]) in conjugation buffer (at a concentration of 1 mg/mL) were directly injected into the heart of the pig. After two hours, the pig was sacrificed, and a small piece of heart tissue where the injection had occurred was cut. The tissue was fixed using formaldehyde, and a histology cut was performed. The tissue was stained with DAPI and rhodamine phalloidin (Thermo Fisher Scientific) to visualize cell nuclei and F-actin networks, respectively. The FAM signal represents the ssDNA signal. A control experiment was prepared by directly injecting naked ssDNA.\nAn in vivo experiment was conducted to understand the stability of the mitochondria-ssDNA complex inside a tissue or organ after injection. Using a syringe, either the mitochondria-ssDNA complex or naked ssDNA (control) were directly injected into the heart of a pig. Two hours post-injection, the tissue was processed and fluorescently stained using DAPI and rhodamine phalloidin to stain cell nuclei and F-actins, respectively. The samples were analyzed using a fluorescence microscope to visualize nuclei, actin and the FAM-labeled ssDNA."}
{"substance": "naked ssDNA: FAM-labeled ssDNA, oligo sequence 5′ to 3′ GCAACAGTGAAGGAAAGCC, injected without mitochondria as control (FAM label, chemistry not fully specified; listed 3' to 5')", "values": [{"measurement": "ssDNA signal in heart tissue", "result": "No ssDNA signal was observed"}]}
